Results from patent US20250057928A1, “VACCINE COMPOSITION FOR INDUCING ANTI-IL-23 ANTIBODY” (OSAKA UNIVERSITY, priority 2021, published 2025).
Where no end group is shown, it is not given here.

System: recombinant mouse IL-23 protein (rmIL-23)
Experiment: Binding of mouse antiserum to rmIL-23, ELISA
Conditions: antiserum of BALB/c mice
Procedure: […] […] Specifically, a 96-well plate immobilized with an epitope peptide dissolved at 10 μg/mL in carbonate buffer was blocked with 5% skim milk/PBS, and then serum serially diluted with 5% skim milk/PBS was added, and the mixture was left standing at 4° C. overnight. After washing the wells with PBS-T, HRP-labeled anti-mouse IgG antibody (GE Healthcare) diluted with 5% skim milk/PBS was added and the mixture was shaken at room temperature for 3 hr. After washing the wells with PBS-T, TMB solution (SIGMA) was added, the wells were allowed to stand for 30 min in the dark, the reaction was stopped by adding 0.5M H2SO4, and the absorbance at 450 nm was measured using a plate reader. The serum dilution rate that gave 1/2 (OD=1.75) of the maximum absorbance was defined as the antibody titer, and the geometric mean titer: GMT was calculated from the individual values. Binding to IL-23 protein was measured by the ELISA method in the same manner as the antibody titer, using rmIL-23 (Antibodies-online GmbH) as the solid-phased antigen and goat serum for blocking.
AJP001 conjugated peptide (SEQ ID NO: 2) was dissolved in physiological saline and intradermally administered to BALB/c mice (female, 6-week-old, N=6) at 1 mg/body 3 times at two-week intervals, and blood was collected every 2 weeks until 8 weeks. […]

SEQ ID NO 2: AJP001-Ahx-B cell epitope peptide conjugate; epitope SSSQQWQR (mouse 152-159) (not fully specified (N-terminus); listed as Mus musculus)
binding to rmIL-23 (0.5 mg/body twice, 5 weeks after initial administration): confirmed
binding ability to rmIL-23 (1 mg/body 3 times, 6 weeks): contained antibodies that bind to rmIL-23
